Measurements published in patent US8969360B2, “Compounds useful as inhibitors of ATR kinase” (Vertex Pharmaceuticals Incorporated, priority 2013, dated 2015).

Experiments:
ATR kinase = target: T1, ATR kinase (Homo sapiens, UniProt Q13535); experiment: ATR Inhibition Assay (radioactive-phosphate incorporation); format: biochemical; conditions: Ki(app); 5 nM full-length ATR, 10 μM ATP, 800 μM target peptide, 25° C.
T1 construct: Assays were carried out at 25° C. in the presence of 5 nM full-length ATR
Procedure: Compounds were screened for their ability to inhibit ATR kinase using a radioactive-phosphate incorporation assay. Assays were carried out in a mixture of 50 mM Tris/HCl (pH 7.5), 10 mM MgCl2 and 1 mM DTT. Final substrate concentrations were 10 μM [γ-33P]ATP (3 mCi 33P ATP/mmol ATP, Perkin Elmer) and 800 μM target peptide (ASELPASQPQPFSAKKK (SEQ. ID NO: 1)).
Assays were carried out at 25° C. in the presence of 5 nM full-length ATR. An assay stock buffer solution was prepared containing all of the reagents listed above, with the exception of ATP and the test compound of interest. 13.5 μL of the stock solution was placed in a 96 well plate followed by addition of 2 μL of DMSO stock containing serial dilutions of the test compound (typically starting from a final concentration of 15 μM with 3-fold serial dilutions) in duplicate (final DMSO concentration 7%). The plate was pre-incubated for 10 minutes at 25° C. and the reaction initiated by addition of 15 μL [γ-33P]ATP (final concentration 10 μM).
The reaction was stopped after […] by the addition of 30 μL, 0.1M phosphoric acid containing 2 mM ATP. A multiscreen phosphocellulose filter 96-well plate (Millipore, Cat no. MAPHN0B50) was pretreated with 100 μL 0.2M phosphoric acid prior to the addition of 45 μL of the stopped assay mixture. The plate was washed with 5×200 μL 0.2M phosphoric acid. After drying, 100 μL Optiphase ‘SuperMix’ liquid scintillation cocktail (Perkin Elmer) was added to the well prior to scintillation counting (1450 Microbeta Liquid Scintillation Counter, Wallac).
After removing mean background values for all of the data points, Ki(app) data were calculated from non-linear regression analysis of the initial rate data using the Prism software package (GraphPad Prism version 3.0cx for Macintosh, GraphPad Software, San Diego Calif., USA).
Compounds with a Ki value of <0.01 μM are marked with “+++.” Compounds with a Ki value >0.01 μM but <1 μM are marked with “++.” Compounds with a Ki value >1 μM but <5 μM are marked with “+.”

[1] = test system: HCT116 colorectal cancer cells; experiment: Cisplatin Sensitization Assay (96 h cell viability MTS); format: cell-based; conditions: concentration of compound required to reduce the IC50 of Cisplatin alone by at least 3-fold; HCT116, 96 h MTS
Procedure: Compounds can be screened for their ability to sensitize HCT116 colorectal cancer cells to Cisplatin using a 96 h cell viability (MTS) assay. […] Compounds and Cisplatin are then both added simultaneously to the cell media in 2-fold serial dilutions from a top final concentration of 10 μM as a full matrix of concentrations in a final cell volume of 200 μl, and the cells are then incubated at 37° C. in 5% CO2. After 96 h, 40 μl of MTS reagent (Promega G358a) is added to each well and the cells are incubated for 1 h at 37° C. in 5% CO2. Finally, absorbance is measured at 490 nm using a SpectraMax Plus 384 reader (Molecular Devices) and the concentration of compound required to reduce the IC50 of Cisplatin alone by at least 3-fold (to 1 decimal place) can be reported.
Compounds with a Cisplatin sensitization value of <0.02 μM are marked with “+++.” Compounds with a Cisplatin sensitization value>0.02 μM but <0.2 μM are marked with “++.” Compounds with a Cisplatin sensitization value >0.2 μM but <5 μM are marked with “+.”

T1 sequence (Q13535 whole entry): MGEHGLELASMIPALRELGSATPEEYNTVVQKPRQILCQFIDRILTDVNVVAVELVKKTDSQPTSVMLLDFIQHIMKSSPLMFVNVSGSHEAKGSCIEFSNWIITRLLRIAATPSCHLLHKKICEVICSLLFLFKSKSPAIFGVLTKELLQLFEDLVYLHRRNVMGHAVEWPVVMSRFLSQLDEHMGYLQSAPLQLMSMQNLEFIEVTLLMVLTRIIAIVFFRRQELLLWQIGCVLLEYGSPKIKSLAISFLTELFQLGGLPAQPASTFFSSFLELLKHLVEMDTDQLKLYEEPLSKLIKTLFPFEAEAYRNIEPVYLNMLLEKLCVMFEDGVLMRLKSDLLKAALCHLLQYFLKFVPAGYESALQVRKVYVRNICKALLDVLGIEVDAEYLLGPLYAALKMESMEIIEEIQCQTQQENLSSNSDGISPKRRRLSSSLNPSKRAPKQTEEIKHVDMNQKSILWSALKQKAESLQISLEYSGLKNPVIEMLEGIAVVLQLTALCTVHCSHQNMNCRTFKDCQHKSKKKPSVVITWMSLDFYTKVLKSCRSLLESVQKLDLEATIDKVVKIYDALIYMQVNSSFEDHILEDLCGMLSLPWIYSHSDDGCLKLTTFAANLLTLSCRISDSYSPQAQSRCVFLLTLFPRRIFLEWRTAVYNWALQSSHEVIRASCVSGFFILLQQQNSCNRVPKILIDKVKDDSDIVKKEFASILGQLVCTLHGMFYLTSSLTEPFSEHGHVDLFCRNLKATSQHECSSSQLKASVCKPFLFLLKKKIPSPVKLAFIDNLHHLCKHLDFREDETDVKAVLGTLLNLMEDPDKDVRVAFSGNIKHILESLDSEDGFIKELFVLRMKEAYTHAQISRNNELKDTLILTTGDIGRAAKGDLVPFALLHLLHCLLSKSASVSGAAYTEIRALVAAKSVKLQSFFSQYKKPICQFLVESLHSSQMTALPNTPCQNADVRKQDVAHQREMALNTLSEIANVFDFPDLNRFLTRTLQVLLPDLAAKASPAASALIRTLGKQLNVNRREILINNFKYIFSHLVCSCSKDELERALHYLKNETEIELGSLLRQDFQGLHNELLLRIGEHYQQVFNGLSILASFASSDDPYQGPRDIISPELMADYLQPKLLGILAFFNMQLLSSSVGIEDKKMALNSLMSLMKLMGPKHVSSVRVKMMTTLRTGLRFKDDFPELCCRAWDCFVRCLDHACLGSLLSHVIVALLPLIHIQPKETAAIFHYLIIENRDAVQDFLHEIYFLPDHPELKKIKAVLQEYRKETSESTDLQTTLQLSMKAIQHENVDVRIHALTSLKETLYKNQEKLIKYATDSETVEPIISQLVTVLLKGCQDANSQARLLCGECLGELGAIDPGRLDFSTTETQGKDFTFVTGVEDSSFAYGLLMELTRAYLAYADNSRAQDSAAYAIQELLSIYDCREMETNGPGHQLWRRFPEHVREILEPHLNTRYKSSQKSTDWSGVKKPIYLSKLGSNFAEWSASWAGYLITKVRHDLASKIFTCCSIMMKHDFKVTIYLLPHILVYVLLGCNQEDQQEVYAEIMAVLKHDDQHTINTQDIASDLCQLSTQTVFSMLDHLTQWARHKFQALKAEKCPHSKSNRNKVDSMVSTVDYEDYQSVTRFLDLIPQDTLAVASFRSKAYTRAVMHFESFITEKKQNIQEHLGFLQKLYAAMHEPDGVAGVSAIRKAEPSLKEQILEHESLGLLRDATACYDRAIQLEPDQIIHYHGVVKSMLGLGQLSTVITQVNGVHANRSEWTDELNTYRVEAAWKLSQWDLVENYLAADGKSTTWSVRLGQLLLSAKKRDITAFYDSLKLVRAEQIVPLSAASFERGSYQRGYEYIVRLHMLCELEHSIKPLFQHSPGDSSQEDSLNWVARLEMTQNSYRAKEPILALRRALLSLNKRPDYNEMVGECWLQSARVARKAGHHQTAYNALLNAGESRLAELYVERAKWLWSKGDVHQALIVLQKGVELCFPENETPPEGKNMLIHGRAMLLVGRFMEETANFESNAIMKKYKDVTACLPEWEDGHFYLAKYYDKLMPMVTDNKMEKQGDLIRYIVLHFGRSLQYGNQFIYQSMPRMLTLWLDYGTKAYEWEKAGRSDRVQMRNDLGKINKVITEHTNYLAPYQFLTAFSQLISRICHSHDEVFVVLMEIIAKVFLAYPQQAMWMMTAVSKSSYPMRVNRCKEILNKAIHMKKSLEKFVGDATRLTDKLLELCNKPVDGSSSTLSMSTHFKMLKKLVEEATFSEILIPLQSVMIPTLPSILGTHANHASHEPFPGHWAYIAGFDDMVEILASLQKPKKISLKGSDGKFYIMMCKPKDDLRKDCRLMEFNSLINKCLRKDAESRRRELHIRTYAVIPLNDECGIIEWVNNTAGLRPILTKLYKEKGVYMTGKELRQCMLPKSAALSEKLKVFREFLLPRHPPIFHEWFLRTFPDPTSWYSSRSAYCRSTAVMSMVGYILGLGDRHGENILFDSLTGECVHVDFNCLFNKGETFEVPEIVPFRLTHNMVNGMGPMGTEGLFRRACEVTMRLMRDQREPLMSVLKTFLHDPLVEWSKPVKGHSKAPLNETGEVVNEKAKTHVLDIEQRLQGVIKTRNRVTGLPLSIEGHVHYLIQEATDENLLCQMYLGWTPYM

Row | Structure (SMILES) | Ki (ATR kinase) | Synergy with Cisplatin [1]
1 | Nc1nn2ccc(C(F)(F)F)nc2c1C(=O)Nc1cnccc1OC1CCCNC1 (stereo not shown) [I-O-23, 2-amino-N-(4-(piperidin-3-yloxy)pyridin-3-yl)-5-(trifluoromethyl)pyrazolo[1,5-a]pyrimidine-3-carboxamide] | 10 to 1000 nM | ++ (Compounds with a Cisplatin sensitization value>0.02 μM but <0.2 μM are marked with “++.”)
2 | Nc1nn2ccc(C(F)(F)F)nc2c1C(=O)Nc1cnccc1OCC1CC1 [I-O-6, 2-amino-N-(4-(cyclopropylmethoxy)pyridin-3-yl)-5-(trifluoromethyl)pyrazolo[1,5-a]pyrimidine-3-carboxamide] | < 10 nM | +++ (Compounds with a Cisplatin sensitization value of <0.02 μM are marked with “+++.”)
3 | COc1ccncc1NC(=O)c1c(N)nn2ccc(C(F)(F)F)nc12 [I-O-1, 2-amino-N-(4-methoxypyridin-3-yl)-5-(trifluoromethyl)pyrazolo[1,5-a]pyrimidine-3-carboxamide] | < 10 nM | +++ (Compounds with a Cisplatin sensitization value of <0.02 μM are marked with “+++.”)
4 | Nc1nn2ccc(C(F)(F)F)nc2c1C(=O)Nc1cnccc1Oc1cccnc1 [I-O-15, 2-amino-N-(4-(pyridin-3-yloxy)pyridin-3-yl)-5-(trifluoromethyl)pyrazolo[1,5-a]pyrimidine-3-carboxamide] | < 10 nM | +++ (Compounds with a Cisplatin sensitization value of <0.02 μM are marked with “+++.”)
5 | Nc1nn2ccc(C(F)(F)F)nc2c1C(=O)Nc1cnccc1OCCO [I-O-13, 2-amino-N-(4-(2-hydroxyethoxy)pyridin-3-yl)-5-(trifluoromethyl)pyrazolo[1,5-a]pyrimidine-3-carboxamide] | < 10 nM | +++ (Compounds with a Cisplatin sensitization value of <0.02 μM are marked with “+++.”)
6 | Nc1nn2ccc(C(F)(F)F)nc2c1C(=O)Nc1cnccc1OCCCO [I-O-14, 2-amino-N-(4-(3-hydroxypropoxy)pyridin-3-yl)-5-(trifluoromethyl)pyrazolo[1,5-a]pyrimidine-3-carboxamide] | < 10 nM | +++ (Compounds with a Cisplatin sensitization value of <0.02 μM are marked with “+++.”)
7 | Nc1nn2ccc(C(F)(F)F)nc2c1C(=O)Nc1cnccc1OC1CCC2(CC1)OCCO2 [I-O-7, N-(4-(1,4-dioxaspiro[4.5]decan-8-yloxy)pyridin-3-yl)-2-amino-5-(trifluoromethyl)pyrazolo[1,5-a]pyrimidine-3-carboxamide] | 10 to 1000 nM | –
8 | NCC1CCN(c2ccncc2NC(=O)c2c(N)nn3ccc(C(F)(F)F)nc23)CC1 [I-N-2, 2-amino-N-(4-(4-(aminomethyl)piperidin-1-yl)pyridin-3-yl)-5-(trifluoromethyl)pyrazolo[1,5-a]pyrimidine-3-carboxamide] | 10 to 1000 nM | –
9 | Nc1nn2ccc(C(F)(F)F)nc2c1C(=O)Nc1cnccc1OC1CN2CCC1CC2 (stereo not shown) [I-O-29, 2-amino-N-(4-(quinuclidin-3-yloxy)pyridin-3-yl)-5-(trifluoromethyl)pyrazolo[1,5-a]pyrimidine-3-carboxamide] | 10 to 1000 nM | –
10 | Nc1nn2ccc(C(F)(F)F)nc2c1C(=O)Nc1cnccc1N1CCN(CCO)CC1 [I-N-3, 2-amino-N-(4-(4-(2-hydroxyethyl)piperazin-1-yl)pyridin-3-yl)-5-(trifluoromethyl)pyrazolo[1,5-a]pyrimidine-3-carboxamide] | 10 to 1000 nM | –

Continued, in another order:

Row | Ki (ATR kinase) | Structure (SMILES) | Synergy with Cisplatin [1]
11 | 10 to 1000 nM | CN1CCCC(Oc2ccncc2NC(=O)c2c(N)nn3ccc(C(F)(F)F)nc23)C1 (stereo not shown) [I-O-26, 2-amino-N-(4-((1-methylpiperidin-3-yl)oxy)pyridin-3-yl)-5-(trifluoromethyl)pyrazolo[1,5-a]pyrimidine-3-carboxamide] | +++ (Compounds with a Cisplatin sensitization value of <0.02 μM are marked with “+++.”)
12 | 10 to 1000 nM | COc1ccncc1NC(=O)c1c(N)nn2ccc(NCCN3CCCC3)nc12 [I-O-72, 2-amino-N-(4-methoxypyridin-3-yl)-5-((2-(pyrrolidin-1-yl)ethyl)amino)pyrazolo[1,5-a]pyrimidine-3-carboxamide] | + (Compounds with a Cisplatin sensitization value >0.2 μM but <5 μM are marked with “+.”)
13 | 10 to 1000 nM | COc1ccncc1NC(=O)c1c(N)nn2ccc(C(C)(C)C#N)nc12 [I-O-52, 2-amino-5-(2-cyanopropan-2-yl)-N-(4-methoxypyridin-3-yl)pyrazolo[1,5-a]pyrimidine-3-carboxamide] | +++ (Compounds with a Cisplatin sensitization value of <0.02 μM are marked with “+++.”)
14 | 10 to 1000 nM | CN(C)C1CCC(Oc2ccncc2NC(=O)c2c(N)nn3ccc(C(F)(F)F)nc23)CC1 (stereo not shown) [I-O-35, 2-amino-N-(4-((4-(dimethylamino)cyclohexyl)oxy)pyridin-3-yl)-5-(trifluoromethyl)pyrazolo[1,5-a]pyrimidine-3-carboxamide] | +++ (Compounds with a Cisplatin sensitization value of <0.02 μM are marked with “+++.”)
15 | 10 to 1000 nM | COc1ccncc1NC(=O)c1c(N)nn2ccc(OCCN3CCC3)nc12 [I-O-59, 2-amino-5-(2-(azetidin-1-yl)ethoxy)-N-(4-methoxypyridin-3-yl)pyrazolo[1,5-a]pyrimidine-3-carboxamide] | ++ (Compounds with a Cisplatin sensitization value>0.02 μM but <0.2 μM are marked with “++.”)
16 | 10 to 1000 nM | COc1ccncc1NC(=O)c1c(N)nn2ccc(OC3CCN(C)C3)nc12 (stereo not shown) [I-O-57, 2-amino-N-(4-methoxypyridin-3-yl)-5-((1-methylpyrrolidin-3-yl)oxy)pyrazolo[1,5-a]pyrimidine-3-carboxamide] | ++ (Compounds with a Cisplatin sensitization value>0.02 μM but <0.2 μM are marked with “++.”)
17 | 10 to 1000 nM | CN(C)[C@H]1CC[C@@H](Oc2ccncc2NC(=O)c2c(N)nn3ccc(C(F)(F)F)nc23)CC1 [I-O-30, 2-amino-N-(4-(((1s,4s)-4-(dimethylamino)cyclohexyl)oxy)pyridin-3-yl)-5-(trifluoromethyl)pyrazolo[1,5-a]pyrimidine-3-carboxamide] | +++ (Compounds with a Cisplatin sensitization value of <0.02 μM are marked with “+++.”)
18 | 10 to 1000 nM | COc1ccncc1NC(=O)c1c(N)nn2ccc(N3CC4(COC4)C3)nc12 [I-O-69, 2-amino-N-(4-methoxypyridin-3-yl)-5-(2-oxa-6-azaspiro[3.3]heptan-6-yl)pyrazolo[1,5-a]pyrimidine-3-carboxamide] | –
19 | 10 to 1000 nM | CC(C)(C#N)c1ccn2nc(N)c(C(=O)Nc3cnccc3OC3CNC3)c2n1 [I-O-53, 2-amino-N-(4-(azetidin-3-yloxy)pyridin-3-yl)-5-(2-cyanopropan-2-yl)pyrazolo[1,5-a]pyrimidine-3-carboxamide] | –
20 | 10 to 1000 nM | CN1CC(Oc2ccncc2NC(=O)c2c(N)nn3ccc(C(F)(F)F)nc23)C1 [I-O-39, 2-amino-N-(4-((1-methylazetidin-3-yl)oxy)pyridin-3-yl)-5-(trifluoromethyl)pyrazolo[1,5-a]pyrimidine-3-carboxamide] | –
21 | 10 to 1000 nM | CNC1CCN(c2ccn3nc(N)c(C(=O)Nc4cnccc4OC)c3n2)C1 (stereo not shown) [I-O-81, 2-amino-N-(4-methoxypyridin-3-yl)-5-(3-(methylamino)pyrrolidin-1-yl)pyrazolo[1,5-a]pyrimidine-3-carboxamide] | –
